Reference: ChEMBL document CHEMBL4251633, “Design, synthesis, biological evaluation and cocrystal structures with tubulin of chiral β-lactam bridged combretastatin A-4 analogues as potent antitumor agents” (Eur J Med Chem, 2018)
Calls of active or inactive are those of the source. No cut-off for these calls is given here.

Key:
Homo sapiens [1] = species: Homo sapiens; assay: Disruption of microtubule structure in human SKOV3 cells assessed as decrease in density at 50 nM after 24 hrs by DAPI staining based immunofluorescence assay; format: cell-based
HeLa [2] = assay: Inhibition of alpha-tubulin polymerization in human HeLa cells assessed as increase in ratio of supernatant faction to pellet fraction at 500 nM after 6 hrs by Western blot analysis; format: cell-based
HeLa [3] = assay: Induction of apoptosis in human HeLa cells assessed as necrotic cells at 100 nM after 48 hrs by Annexin V-FITC/propidium iodide staining based flow cytometry (reference value: 0.9%); format: functional
HeLa [4] = assay: Induction of apoptosis in human HeLa cells assessed as late apoptotic cells at 100 nM after 48 hrs by Annexin V-FITC/propidium iodide staining based flow cytometry (reference value: 2%); format: functional
HeLa [5] = assay: Induction of apoptosis in human HeLa cells assessed as early apoptotic cells at 100 nM after 48 hrs by Annexin V-FITC/propidium iodide staining based flow cytometry (reference value: 0.7%); format: functional
HeLa [6] = assay: Cell cycle arrest in human HeLa cells assessed as accumulation at G2/M-phase at 50 nM after 24 hrs by propidium iodide staining based flow cytometry; format: functional
HeLa [7] = assay: Induction of apoptosis in human HeLa cells assessed as live cells at 100 nM after 48 hrs by Annexin V-FITC/propidium iodide staining based flow cytometry (reference value: 96.5%); format: functional
HeLa [8] = assay: Induction of apoptosis in human HeLa cells after 48 hrs by Annexin V-FITC/propidium iodide staining based flow cytometry; format: functional, cell-based
A2780 [9] = assay: Antitumor activity against human A2780 cells xenografted in Balb/c nude mouse assessed as induction of tumor necrosis at 7.5 mg/kg, ip once in every 2 days measured after 14 days by H and E staining based assay; format: functional, organism-based
Mus musculus [10] = assay: Acute toxicity in ICR mouse assessed as death at 25 to 95 mg/kg, ip measured after 2 days; format: organism-based; conditions: in vivo, 48 h
HeLa [11] = assay: Induction of apoptosis in human HeLa cells assessed as necrotic cells at 50 nM after 48 hrs by Annexin V-FITC/propidium iodide staining based flow cytometry (reference value: 0.9%); format: functional
HeLa [12] = assay: Induction of apoptosis in human HeLa cells assessed as live cells at 50 nM after 48 hrs by Annexin V-FITC/propidium iodide staining based flow cytometry (reference value: 96.5%); format: functional
MDA-MB-231 = assay: Anticlonogenic activity against human MDA-MB-231 cells incubated for 48 hrs followed by replacement with fresh medium measured after 7 to 10 days by gentian violet staining based assay; format: functional, cell-based
Mus musculus [13] = assay: Anti-vascular activity in Balb/c nude mouse assessed as inhibition of VEGF-induced capillary blood vessel formation using sc injected matrigel plug supplemented with 100 nM test compound mixed with VEGF and measured after 1 week by matrigel plug assay; format: functional, organism-based
HeLa [14] = assay: Induction of apoptosis in human HeLa cells assessed as necrotic cells at 200 nM after 48 hrs by Annexin V-FITC/propidium iodide staining based flow cytometry (reference value: 0.9%); format: functional
[15] = Growth inhibition of HOSEC at 1 uM after 48 hrs by MTT assay relative to control; conditions: human, HOSEC cells; read-out: GI
HUVEC = assay: Antiangiogenic activity against HUVEC assessed as disruption of capillary-like tube formation at 25 to 50 nM after 12 hrs by inverted microscopic method; format: functional, cell-based; conditions: Homo sapiens
Sus scrofa = species: Sus scrofa; assay: Inhibition of pig brain tubulin polymerization measured every 1 min for 20 mins by spectrophotometric method
Mus musculus [16] = assay: Acute toxicity in ICR mouse assessed as death at 25 to 50 mg/kg, ip measured after 5 to 14 days; format: organism-based; conditions: in vivo
HeLa [17] = assay: Induction of apoptosis in human HeLa cells assessed as late apoptotic cells at 200 nM after 48 hrs by Annexin V-FITC/propidium iodide staining based flow cytometry (reference value: 2%); format: functional
[18] = Acute toxicity in ICR mouse assessed as survival rate at 25 mg/kg, ip measured on day 14 (reference value: 100%); format: organism-based; conditions: in vivo
HeLa [19] = assay: Induction of apoptosis in human HeLa cells assessed as early apoptotic cells at 50 nM after 48 hrs by Annexin V-FITC/propidium iodide staining based flow cytometry (reference value: 0.7%); format: functional
Mus musculus [20] = assay: Toxicity in Balb/c nude mouse xenografted with human A2780 cells assessed as abnormality in liver at 7.5 mg/kg, ip once in every 2 days measured after 14 days by H and E staining based assay; format: organism-based; conditions: in vivo, 336 h
[21] = Acute toxicity in ICR mouse assessed as survival rate at 70 mg/kg, ip measured on day 14 (reference value: 100%); format: organism-based; conditions: in vivo
HeLa [22] = assay: Induction of histone-H3 phosphorylation in human HeLa cells by Western blot analysis; format: cell-based
A2780 [23] = assay: Antitumor activity against human A2780 cells xenografted in Balb/c nude mouse assessed as isolated tumor weight inhibition at 7.5 mg/kg, ip once in every 2 days measured after 14 days; format: functional, organism-based
Homo sapiens [24] = species: Homo sapiens; assay: Disruption of microtubule structure in human SKOV3 cells assessed as decrease in density at 100 nM after 24 hrs by DAPI staining based immunofluorescence assay; format: cell-based
A2780 [25] = assay: Antitumor activity against human A2780 cells xenografted in Balb/c nude mouse assessed as tumor weight inhibition at 7.5 mg/kg, ip once in every 2 days measured up to 14 days; format: functional, organism-based
[26] = Acute toxicity in ICR mouse assessed as survival rate at 50 mg/kg, ip measured on day 14 (reference value: 100%); format: organism-based; conditions: in vivo
Mus musculus [27] = assay: Acute toxicity in ICR mouse assessed as death at 25 to 50 mg/kg, ip measured after 4 days; format: organism-based; conditions: in vivo, 96 h
[28] = biological target: Mitotic checkpoint serine/threonine-protein kinase BUB1 beta (Homo sapiens) (UniProt O60566); assay: Induction of BubR1 hyperphosphorylation in human HeLa cells by Western blot analysis; format: cell-based
Chain of Mitotic checkpoint serine/threonine-protein kinase BUB1 beta (Homo sapiens) (O60566 whole entry): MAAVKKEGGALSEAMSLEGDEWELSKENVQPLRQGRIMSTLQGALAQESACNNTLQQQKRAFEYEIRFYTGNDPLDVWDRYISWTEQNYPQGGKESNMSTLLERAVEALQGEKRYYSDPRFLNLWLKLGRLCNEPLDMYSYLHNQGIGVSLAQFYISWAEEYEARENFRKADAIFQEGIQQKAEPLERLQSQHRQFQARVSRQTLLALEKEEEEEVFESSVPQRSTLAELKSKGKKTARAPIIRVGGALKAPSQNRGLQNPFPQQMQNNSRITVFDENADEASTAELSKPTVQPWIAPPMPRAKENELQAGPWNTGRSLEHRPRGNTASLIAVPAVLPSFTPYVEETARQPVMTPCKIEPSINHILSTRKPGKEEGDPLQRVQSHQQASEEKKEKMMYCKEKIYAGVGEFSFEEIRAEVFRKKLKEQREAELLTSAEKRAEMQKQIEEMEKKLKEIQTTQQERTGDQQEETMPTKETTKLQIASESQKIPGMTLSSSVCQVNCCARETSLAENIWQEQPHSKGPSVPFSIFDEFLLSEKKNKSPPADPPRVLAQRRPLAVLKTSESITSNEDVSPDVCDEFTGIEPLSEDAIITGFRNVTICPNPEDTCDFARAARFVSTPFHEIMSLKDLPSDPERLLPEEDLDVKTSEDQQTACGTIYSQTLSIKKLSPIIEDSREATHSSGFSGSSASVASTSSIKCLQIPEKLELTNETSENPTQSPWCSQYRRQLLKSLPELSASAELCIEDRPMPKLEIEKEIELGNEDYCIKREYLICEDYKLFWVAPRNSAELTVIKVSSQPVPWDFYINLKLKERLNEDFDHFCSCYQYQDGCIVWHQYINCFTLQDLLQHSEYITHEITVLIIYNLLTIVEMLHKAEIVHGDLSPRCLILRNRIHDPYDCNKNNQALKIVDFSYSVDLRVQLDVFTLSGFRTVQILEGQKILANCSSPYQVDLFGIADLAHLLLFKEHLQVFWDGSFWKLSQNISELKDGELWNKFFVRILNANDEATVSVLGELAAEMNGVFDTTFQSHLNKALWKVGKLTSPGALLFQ

[29] = Acute toxicity in ICR mouse assessed as survival rate at 35 mg/kg, ip measured on day 14 (reference value: 100%); format: organism-based; conditions: in vivo
[30] = Acute toxicity in ICR mouse assessed as survival rate at 95 mg/kg, ip measured on day 14 (reference value: 100%); format: organism-based; conditions: in vivo
A2780 [31] = assay: Antitumor activity against human A2780 cells xenografted in Balb/c nude mouse assessed as tumor volume inhibition at 7.5 mg/kg, ip once in every 2 days measured up to 14 days relative to control; format: functional
HeLa [32] = assay: Upregulation of Cyclin-B1 protein expression in human HeLa cells at 50 to 200 nM by Western blot analysis; format: functional, cell-based
Mus musculus [33] = assay: Anti-vascular activity in Balb/c nude mouse assessed as inhibition of VEGF-induced capillary blood vessel formation by measuring reduction in hemoglobin level using sc injected matrigel plug supplemented with 100 nM test compound mixed with VEGF and measured after 1 week by matrigel plug assay; format: functional, organism-based
HeLa [34] = assay: Upregulation of cleaved PARP1 protein expression in human HeLa cells after 48 hrs by Western blot analysis; format: functional, cell-based
Mus musculus [35] = assay: Toxicity in Balb/c nude mouse xenografted with human A2780 cells assessed as abnormality in kidney at 7.5 mg/kg, ip once in every 2 days measured after 14 days by H and E staining based assay; format: organism-based; conditions: in vivo, 336 h
Mus musculus [36] = assay: Acute toxicity in ICR mouse assessed as death at 25 to 95 mg/kg, ip measured after 1 day; format: organism-based; conditions: in vivo, 24 h
Mus musculus [37] = assay: Acute toxicity in ICR mouse assessed as death at 25 mg/kg, ip measured after 3 days; format: organism-based; conditions: in vivo, 72 h
HeLa [38] = assay: Upregulation of Bax protein expression in human HeLa cells after 48 hrs by Western blot analysis; format: functional, cell-based
HeLa [39] = assay: Cell cycle arrest in human HeLa cells assessed as accumulation at G2/M-phase at 50 to 100 nM after 24 hrs by propidium iodide staining based flow cytometry; format: functional
Mus musculus [40] = assay: Toxicity in Balb/c nude mouse xenografted with human A2780 cells assessed as body weight loss at 7.5 mg/kg, ip once in every 2 days measured up to 14 days; format: organism-based; conditions: in vivo
HeLa [41] = assay: Induction of apoptosis in human HeLa cells assessed as live cells at 200 nM after 48 hrs by Annexin V-FITC/propidium iodide staining based flow cytometry (reference value: 96.5%); format: functional
HeLa [42] = assay: Upregulation of p53 protein expression in human HeLa cells after 48 hrs by Western blot analysis; format: functional, cell-based
HeLa [43] = assay: Induction of apoptosis in human HeLa cells assessed as late apoptotic cells at 50 nM after 48 hrs by Annexin V-FITC/propidium iodide staining based flow cytometry (reference value: 2%); format: functional
Mus musculus [44] = assay: Toxicity in Balb/c nude mouse xenografted with human A2780 cells assessed as abnormality in spleen at 7.5 mg/kg, ip once in every 2 days measured after 14 days by H and E staining based assay; format: organism-based; conditions: in vivo, 336 h
HeLa [45] = assay: Induction of apoptosis in human HeLa cells assessed as early apoptotic cells at 200 nM after 48 hrs by Annexin V-FITC/propidium iodide staining based flow cytometry (reference value: 0.7%); format: functional

## CC(=O)O[C@H]1C(=O)[C@@]2(C)[C@H]([C@H](OC(=O)c3ccccc3)[C@]3(O)C[C@H](OC(=O)[C@H](O)[C@@H](NC(=O)c4ccccc4)c4ccccc4)C(C)=C1C3(C)C)[C@]1(OC(C)=O)CO[C@@H]1C[C@@H]2O
Homo sapiens [1]
  Activity: inactive
HeLa [2]
  tubulin polymerization inhibition (active/inactive): inactive

## COc1ccc(/C=C\c2cc(OC)c(OC)c(OC)c2)cc1O [COMBRETASTATIN A4]
Homo sapiens [1]
  Activity: Active
HeLa [3]
  Activity: 7.5%
HeLa [4]
  Activity: 29.2%
HeLa [5]
  Activity: 33.3%
HeLa [6]
  Activity: 100%
HeLa [2]
  tubulin polymerization inhibition (active/inactive): Active
HeLa [7]
  Activity: 30%

## COc1ccc([C@H]2[C@H](CO)C(=O)N2c2cc(OC)c(OC)c(OC)c2)cc1O
HeLa [8]
  Activity: Dose-dependent effect
A2780 [9]
  Activity: Active
Mus musculus [10]
  Activity: Non-Toxic
HeLa [11]
  Activity: 13%
HeLa [12]
  Activity: 48.2%
MDA-MB-231
  Activity: Dose-dependent effect
Mus musculus [13]
  inhibition: Active
HeLa [14]
  Activity: 6.7%
[15]
  inhibition at 48 h, 1 µM: < 50%
HUVEC
  Activity: Active
Sus scrofa
  inhibition: Dose-dependent effect
Mus musculus [16]
  Activity: Non-Toxic
HeLa [17]
  Activity: 34.6%
[18]
  survival at 14 day: 100%
HeLa [19]
  Activity: 18.6%
Mus musculus [20]
  Activity: Non-Toxic
[21]
  survival at 14 day: 30%
HeLa [22]
  Activity: Dose-dependent effect
A2780 [23]
  inhibition: Active
Homo sapiens [24]
  Activity: Active
A2780 [25]
  inhibition: Active
[26]
  survival at 14 day: 90%
Mus musculus [27]
  Activity: Non-Toxic
[28]
  Activity: Dose-dependent effect
HeLa [3]
  Activity: 6.1%
[29]
  survival at 14 day: 90%
[30]
  survival at 14 day: 20%
A2780 [31]
  inhibition in vivo at 7.5 mg/kg: 78.9%
HeLa [32]
  Activity: Active
HeLa [4]
  Activity: 24.6%
Mus musculus [33]
  inhibition: Active
HeLa [34]
  Activity: Dose-dependent effect
Mus musculus [35]
  Activity: Non-Toxic
HeLa [5]
  Activity: 32.9%
Mus musculus [36]
  Activity: Non-Toxic
Mus musculus [37]
  Activity: Non-Toxic
HeLa [2]
  tubulin polymerization inhibition (active/inactive): Active
HeLa [38]
  Activity: Dose-dependent effect
HeLa [39]
  Activity: Active
Mus musculus [40]
  Activity: Non-Toxic
HeLa [41]
  Activity: 22.6%
HeLa [42]
  Activity: Dose-dependent effect
HeLa [7]
  Activity: 36.3%
HeLa [43]
  Activity: 20.1%
Mus musculus [44]
  Activity: Non-Toxic
HeLa [45]
  Activity: 36.1%
